Source: US8558011B2, “Cold menthol receptor-1 antagonists” (Janssen Pharmaceutica, NV, priority 2010, dated 2013)
Where “and” joins values, the source holds several entries; their conditions need not be identical. Equal values may be shown once.

Molecular target: T1, canine TRPM8 (Canis lupus familiaris, UniProt Q1A7N1)
T1 construct: expressed in transfected cells
Assay: In Vitro Canine TRPM8 Functional Assay (Ca2+-sensitive fluorescent dye, icilin activation, FLIPR/FDSS)
Format: cell-based
Details: HEK293 cells stably expressing canine TRPM8, icilin activation; for % I (1 μM): compound at 1 μM; for IC50: eight-point dose-response; for % I (0.5 μM): compound at 0.5 μM
Protocol: The functional activity of compounds of Formula (I) was determined by measuring changes in intracellular calcium concentration using a Ca^2+-sensitive fluorescent dye. The changes in fluorescent signal were monitored by a fluorescence plate reader, either a FLIPR™ (Molecular Devices) or FDSS (Hamamatsu).
HEK293 cells stably expressing canine TRPM8 were routinely grown as monolayers in Dulbecco's minimum essential medium supplemented with 10% FBS, 1 mM L-glutamine, 100 units/mL penicillin, 100 ug/mL streptomycin and 400 μg/mL G418. Cells were maintained in 5% CO2 at 37° C. At 24 hrs prior to assay, cells were seeded in clear-base poly-D-lysine coated 384-well plates (BD Biosciences, NJ, USA) at a density of 5,000 cells per well in culture medium and grown overnight in 5% CO2 at 37° C. On assay day, growth media was removed and cells were loaded with Calcium 3 Dye (Molecular Devices) for 35 min at 37° C., under 5% CO2 and then for 25 min at room temperature and atmosphere. Subsequently, cells were tested for agonist-induced increases in intracellular Ca^2+ levels using FLIPR™ or FDSS. Cells were challenged with a compound of Formula (I) (at varying concentrations) and intracellular Ca^2+ was measured for 5 min prior to the addition of icilin to all wells to achieve a final concentration which produces approximately an 80% maximal response.
Basal FI was subtracted prior to normalizing data to percent of maximal response. Curves were generated using the average of quadruplicate wells for each data point, were analyzed using nonlinear regression of either sigmoidal dose response or sigmoidal dose response (variable slope). Finally, the EC50 and IC50 values were calculated with the best-fit dose curve determined by GraphPad Prism.

T1 sequence (Q1A7N1 1-1104): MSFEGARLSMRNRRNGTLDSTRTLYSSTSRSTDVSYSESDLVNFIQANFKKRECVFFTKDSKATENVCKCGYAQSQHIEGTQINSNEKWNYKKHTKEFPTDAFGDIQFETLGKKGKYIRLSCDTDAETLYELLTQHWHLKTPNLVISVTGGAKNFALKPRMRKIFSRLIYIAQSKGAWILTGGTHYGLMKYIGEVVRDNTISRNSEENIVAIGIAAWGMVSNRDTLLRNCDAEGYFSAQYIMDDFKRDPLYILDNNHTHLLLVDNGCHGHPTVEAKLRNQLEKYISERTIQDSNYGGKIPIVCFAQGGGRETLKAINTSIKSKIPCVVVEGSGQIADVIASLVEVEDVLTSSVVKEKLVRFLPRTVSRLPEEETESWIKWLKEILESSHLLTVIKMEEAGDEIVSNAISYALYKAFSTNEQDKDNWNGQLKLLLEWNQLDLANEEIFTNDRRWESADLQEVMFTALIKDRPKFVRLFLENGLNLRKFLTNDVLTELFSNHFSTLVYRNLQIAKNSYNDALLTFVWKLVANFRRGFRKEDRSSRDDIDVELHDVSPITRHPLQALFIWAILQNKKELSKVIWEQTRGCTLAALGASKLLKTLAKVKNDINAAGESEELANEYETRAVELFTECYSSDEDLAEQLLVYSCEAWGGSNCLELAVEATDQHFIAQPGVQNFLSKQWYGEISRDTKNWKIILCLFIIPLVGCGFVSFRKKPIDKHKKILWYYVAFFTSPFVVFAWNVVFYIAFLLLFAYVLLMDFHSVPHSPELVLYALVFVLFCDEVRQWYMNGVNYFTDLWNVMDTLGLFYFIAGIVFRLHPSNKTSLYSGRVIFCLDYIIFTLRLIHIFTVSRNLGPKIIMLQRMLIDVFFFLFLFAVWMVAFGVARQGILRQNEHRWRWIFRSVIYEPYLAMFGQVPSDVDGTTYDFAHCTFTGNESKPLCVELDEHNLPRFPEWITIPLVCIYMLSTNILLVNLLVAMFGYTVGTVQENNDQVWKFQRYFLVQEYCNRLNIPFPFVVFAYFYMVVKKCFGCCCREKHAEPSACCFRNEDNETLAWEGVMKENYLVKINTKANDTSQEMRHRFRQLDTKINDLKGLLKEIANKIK

CCOP(=O)(OCC)C(Cc1ccc(F)c(F)c1)c1sc2c(F)cccc2c1C (stereo not shown) [Cpd 8, [2-(3,4-Difluoro-phenyl)-1-(7-fluoro-3-methyl-benzo[b-]thiophene-2-yl)-ethyl]-phosphonic acid diethyl ester]
% I (1 μM): 100%

CCOP(=O)(OCC)C(Cc1ccc(OC)c(C(F)(F)F)c1)c1sc2ccccc2c1Cl (stereo not shown) [Cpd 292]
IC50: 216 nM
% I (0.5 μM): 99%

CC(C)OP(=O)(OC(C)C)C(Cc1cccc(C(F)(F)F)c1F)c1sc2ccccc2c1Cl (stereo not shown) [Cpd 168]
IC50: 76 nM
% I (0.5 μM): 104%

CCOP(=O)(OCC)C(Cc1ccc(F)c(F)c1)c1sc2ccccc2c1-c1cccc(C(N)=O)c1 (stereo not shown) [Cpd 218]
IC50: 483 nM
% I (0.5 μM): 79%

CCOP(=O)(OCC)C(Cc1cccc(N)c1)c1sc2ccccc2c1Br (stereo not shown) [Cpd 318, [2-(3-Amino-phenyl)-1-(3-bromo-benzo[b]thiophen-2-yl)-ethyl]-phosphonic acid diethyl ester]
% I (0.5 μM): 100%

CCOP(=O)(OCC)C(Cc1cccc(F)c1F)c1sc2ccccc2c1C (racemic) [Cpd 10]
IC50: 43 nM
% I (1 μM): 100%

CCOP(=O)(OCC)C(Cc1ccc(F)c(O)c1)c1sc2ccccc2c1Br (stereo not shown) [Cpd 225, [1-(3-Bromo-benzo[b]thiophen-2-yl)-2-(4-fluoro-3-hydroxy-phenyl)-ethyl]-phosphonic acid diethyl ester]
% I (0.5 μM): 103%

CCOP(=O)(OCC)C(Cc1cc(C(F)(F)F)ccc1F)c1sc2ccccc2c1Cl (stereo not shown) [Cpd 286]
IC50: 127 nM
% I (0.5 μM): 102%

CCOP(=O)(OCC)C(Cc1cccc(C(F)(F)F)c1F)c1sc2ccccc2c1C (racemic) [Cpd 37]
IC50: 127 nM
% I (1 μM): 100%

CC(C)OP(=O)(OC(C)C)C(Cc1cccc(OC(F)(F)F)c1)c1sc2ccccc2c1Cl (stereo not shown) [Cpd 301]
IC50: 54 nM
% I (0.5 μM): 102%

CCOP(=O)(OCC)C(Cc1cccc(Cl)c1F)c1sc2ccccc2c1Br (stereo not shown) [Cpd 143]
IC50: 67 nM
% I (0.5 μM): 101%

CCOP(=O)(OCC)C(Cc1cc(C(F)(F)F)ccc1F)c1sc2ccccc2c1Br (stereo not shown) [Cpd 146]
IC50: 100 nM
% I (0.5 μM): 103%

CCOP(=O)(OCC)C(Cc1ccc(OC)c(C(F)(F)F)c1)c1sc2ccccc2c1Br (stereo not shown) [Cpd 152]
IC50: 54 nM and 50 nM
% I (0.5 μM): 102% and 92%

CCOP(=O)(OCC)C(Cc1cccc(Cl)c1)c1sc2ccccc2c1Cl (stereo not shown) [Cpd 290]
IC50: 115 nM
% I (0.5 μM): 103%

CC(C)OP(=O)(OC(C)C)C(Cc1ccc(F)c(F)c1)c1sc2ccccc2c1C1CCCC1 (racemic) [Cpd 38]
IC50: 140 nM
% I (1 μM): 99%

CCOP(=O)(OCC)C(Cc1ccc(F)c(Cl)c1)c1sc2ccccc2c1Cl (stereo not shown) [Cpd 297]
IC50: 40 nM
% I (0.5 μM): 103%

CCOP(=O)(OCC)C(Cc1cc(Cl)ccc1F)c1sc2ccccc2c1Cl (stereo not shown) [Cpd 305]
IC50: 70 nM
% I (0.5 μM): 102%

CCOP(=O)(Cc1cc2ccccc2s1)OCc1ccccc1C (stereo not shown) [Cpd 104, Benzo[b]thiophen-2-ylmethyl-phosphonic acid ethyl ester 2-methyl-benzyl ester]
% I (1 μM): 53%

CCOP(=O)(OCC)C(Cc1c(F)c(F)c(OC)c(F)c1F)c1sc2ccccc2c1Br (stereo not shown) [Cpd 160]
IC50: 60 nM
% I (0.5 μM): 87%

CCOP(=O)(OCC)C(Cc1ccc(F)cc1Cl)c1sc2ccccc2c1C (racemic) [Cpd 27]
IC50: 110 nM
% I (1 μM): 99%

CCOP(=O)(OCC)C(Cc1cccc(Cl)c1F)c1sc2ccccc2c1C (racemic) [Cpd 23]
IC50: 96 nM
% I (1 μM): 100%

CCOP(=O)(OCC)C(Cc1ccc(F)c(OC)c1)c1sc2ccccc2c1Br (stereo not shown) [Cpd 156]
% I (0.5 μM): 103%

CCC(C)P(=O)(C(C)CC)C(OCc1ccc(F)c(F)c1)c1sc2ccccc2c1Br (stereo not shown) [Cpd 204]
IC50: 92 nM
% I (1 μM): 100%

CCOP(=O)(OCC)C(Cc1cccc(OC(F)(F)F)c1)c1sc2ccccc2c1Br (stereo not shown) [Cpd 145]
IC50: 119 nM and 116 nM
% I (0.5 μM): 103, % and 102%
